Experimental data reported in ChEMBL document CHEMBL2375302, “Synthesis, antimicrobial, antiquorum-sensing, antitumor and cytotoxic activities of new series of fused [1,3,4]thiadiazoles” (Eur J Med Chem, 2013).

What was measured:
[1] = Toxicity against brine shrimp larvae assessed as mortality at 500 ug/mL after 24 hrs by binocular microscopic analysis relative to control; format: organism-based; conditions: artemia salina, in vivo
HCT-15 = assay: Growth inhibition of human HCT15 cells at 10 uM after 48 hrs by coulter counter analysis relative to control; format: functional; conditions: HCT-15, 48 h, read-out: GI
SK-OV-3 = assay: Growth inhibition of human SKOV3 cells at 10 uM after 48 hrs by coulter counter analysis relative to control; format: functional; conditions: SK-OV-3, 48 h, read-out: GI
SF-295 = assay: Growth inhibition of human SF295 cells at 10 uM after 48 hrs by coulter counter analysis relative to control; format: functional; conditions: SF-295, 48 h, read-out: GI
SNB-19 = assay: Growth inhibition of human SNB19 cells at 10 uM after 48 hrs by coulter counter analysis relative to control; format: functional; conditions: SNB-19, 48 h, read-out: GI
LOX IMVI = assay: Growth inhibition of human LOXIMVI cells at 10 uM after 48 hrs by coulter counter analysis relative to control; format: functional; conditions: read-out: GI
Malme-3M = assay: Growth inhibition of human MALME-3M cells at 10 uM after 48 hrs by coulter counter analysis relative to control; format: functional; conditions: read-out: GI
HOP-62 = assay: Growth inhibition of human HOP62 cells at 10 uM after 48 hrs by coulter counter analysis relative to control; format: functional; conditions: HOP-62, 48 h, read-out: GI
RPMI-8226 = assay: Growth inhibition of human RPMI8226 cells at 10 uM after 48 hrs by coulter counter analysis relative to control; format: functional; conditions: RPMI-8226, 48 h, read-out: GI
[2] = Toxicity against brine shrimp larvae assessed as mortality at 10 ug/mL after 24 hrs by binocular microscopic analysis relative to control; format: organism-based; conditions: artemia salina, in vivo
ACHN = assay: Growth inhibition of human ACHN cells at 10 uM after 48 hrs by coulter counter analysis relative to control; format: functional; conditions: read-out: GI
KM12 = assay: Growth inhibition of human KM12 cells at 10 uM after 48 hrs by coulter counter analysis relative to control; format: functional; conditions: KM12, 48 h, read-out: GI
TK-10 = assay: Growth inhibition of human TK10 cells at 10 uM after 48 hrs by coulter counter analysis relative to control; format: functional; conditions: TK-10, 48 h, read-out: GI
A498 = assay: Growth inhibition of human A498 cells at 10 uM after 48 hrs by coulter counter analysis relative to control; format: functional; conditions: A498, 48 h, read-out: GI
SN12C = assay: Growth inhibition of human SN12C cells at 10 uM after 48 hrs by coulter counter analysis relative to control; format: functional; conditions: read-out: GI
[3] = Toxicity against brine shrimp larvae assessed as mortality at 100 ug/mL after 24 hrs by binocular microscopic analysis relative to control; format: organism-based; conditions: artemia salina, in vivo
Hs-578T = assay: Growth inhibition of human Hs578T cells at 10 uM after 48 hrs by coulter counter analysis relative to control; format: functional; conditions: read-out: GI
BT-549 = assay: Growth inhibition of human BT549 cells at 10 uM after 48 hrs by coulter counter analysis relative to control; format: functional; conditions: BT-549, 48 h, read-out: GI
HL-60(TB) = assay: Growth inhibition of human HL-60(TB) cells at 10 uM after 48 hrs by coulter counter analysis relative to control; format: functional; conditions: HL-60, 48 h, read-out: GI
CAKI-1 = assay: Growth inhibition of human CAKI-1 cells at 10 uM after 48 hrs by coulter counter analysis relative to control; format: functional; conditions: CAKI-1, 48 h, read-out: GI
M14 = assay: Growth inhibition of human M14 cells at 10 uM after 48 hrs by coulter counter analysis relative to control; format: functional; conditions: M14, 48 h, read-out: GI
RXF 393 = assay: Growth inhibition of human RXF393 cells at 10 uM after 48 hrs by coulter counter analysis relative to control; format: functional; conditions: RXF 393, 48 h, read-out: GI
SK-MEL-28 = assay: Growth inhibition of human SK-MEL-28 cells at 10 uM after 48 hrs by coulter counter analysis relative to control; format: functional; conditions: SK-MEL-28, 48 h, read-out: GI
OVCAR-3 = assay: Growth inhibition of human OVCAR3 cells at 10 uM after 48 hrs by coulter counter analysis relative to control; format: functional; conditions: OVCAR-3, 48 h, read-out: GI
NCI-H226 = assay: Growth inhibition of human NCI-H226 cells at 10 uM after 48 hrs by coulter counter analysis relative to control; format: functional; conditions: NCI-H226, 48 h, read-out: GI
NCI-H23 = assay: Growth inhibition of human NCI-H23 cells at 10 uM after 48 hrs by coulter counter analysis relative to control; format: functional; conditions: NCI-H23, 48 h, read-out: GI
MOLT-4 = assay: Growth inhibition of human MOLT4 cells at 10 uM after 48 hrs by coulter counter analysis relative to control; format: functional; conditions: MOLT-4, 48 h, read-out: GI
[4] = Growth inhibition of human HCC2998 cells at 10 uM after 48 hrs by coulter counter analysis relative to control; format: functional; conditions: HCC 2998, 48 h, read-out: GI
Bacillus cereus = assay: Antibacterial activity against Bacillus cereus at 5 mg/mL after 24 hrs; format: functional; conditions: read-out: DIZ
786-0 = assay: Growth inhibition of human 786-0 cells at 10 uM after 48 hrs by coulter counter analysis relative to control; format: functional; conditions: 786-0, 48 h, read-out: GI
SF-268 = assay: Growth inhibition of human SF268 cells at 10 uM after 48 hrs by coulter counter analysis relative to control; format: functional; conditions: SF-268, 48 h, read-out: GI

Row | SMILES | mortality at 24 h, 500 ug/mL [1] | inhibition of growth at 10 µM (HCT-15) | inhibition of growth at 10 µM (SK-OV-3) | inhibition of growth at 10 µM (SF-295) | inhibition of growth at 10 µM (SNB-19) | inhibition of growth at 10 µM (LOX IMVI) | inhibition of growth at 10 µM (Malme-3M) | inhibition of growth at 10 µM (HOP-62) | inhibition of growth at 10 µM (RPMI-8226) | mortality at 24 h, 10 ug/mL [2] | inhibition of growth at 10 µM (ACHN) | inhibition of growth at 10 µM (KM12) | inhibition of growth at 10 µM (TK-10) | inhibition of growth at 10 µM (A498) | inhibition of growth at 10 µM (SN12C) | mortality at 24 h, 100 ug/mL [3] | inhibition of growth at 10 µM (Hs-578T) | inhibition of growth at 10 µM (BT-549) | inhibition of growth at 10 µM (HL-60(TB)) | inhibition of growth at 10 µM (CAKI-1) | further results
1 | N#Cc1cnc2sc(S(N)(=O)=O)nn2c1=N | 90% | < 10% | < 10% | < 10% | < 10% | 15.1% | < 10% | 10.7% | < 10% | 73.3% | < 10% | < 10% | < 10% | 14.9% | < 10% | 80% | < 10% | < 10% | 29.3% | 11.5% | inhibition of growth at 10 µM (M14): < 10%; inhibition of growth at 10 µM (RXF 393): < 10%; inhibition of growth at 10 µM (SK-MEL-28): < 10%; inhibition of growth at 10 µM (OVCAR-3): < 10%; inhibition of growth at 10 µM (NCI-H226): < 10%; inhibition of growth at 10 µM (NCI-H23): < 10%; inhibition of growth at 10 µM (MOLT-4): < 10%; inhibition of growth at 10 µM [4]: < 10%; zone of inhibition at 5000 µg/mL (Bacillus cereus): < 2 mm; inhibition of growth at 10 µM (786-0): < 10%; inhibition of growth at 10 µM (SF-268): < 10%
2 | N#Cc1cnc2sc(S(N)(=O)=O)nn2c1=O | 83.3% | < 10% | < 10% | < 10% | < 10% | 10.7% | 28% | < 10% | < 10% | 50% | < 10% | < 10% | < 10% | 34.2% | < 10% | 70% | 12.8% | < 10% | 18.4% | < 10% | inhibition of growth at 10 µM (M14): < 10%; inhibition of growth at 10 µM (RXF 393): < 10%; inhibition of growth at 10 µM (SK-MEL-28): < 10%; inhibition of growth at 10 µM (OVCAR-3): < 10%; inhibition of growth at 10 µM (NCI-H226): < 10%; inhibition of growth at 10 µM (NCI-H23): < 10%; inhibition of growth at 10 µM (MOLT-4): < 10%; inhibition of growth at 10 µM [4]: < 10%; zone of inhibition at 5000 µg/mL (Bacillus cereus): 2 mm; inhibition of growth at 10 µM (786-0): < 10%; inhibition of growth at 10 µM (SF-268): < 10%
3 | CCOC(=O)C1C(=O)N=C2SC(S(N)(=O)=O)=NN2C1c1ccc(N(C)C)cc1 (stereo not drawn) | 93.3% | < 10% | < 10% | < 10% | < 10% | 11.7% | 14.9% | < 10% | < 10% | 66.6% | < 10% | < 10% | < 10% | 16.5% | < 10% | 83.3% | 18.5% | < 10% | 21% | 21.1% | inhibition of growth at 10 µM (M14): < 10%; inhibition of growth at 10 µM (RXF 393): < 10%; inhibition of growth at 10 µM (SK-MEL-28): < 10%; inhibition of growth at 10 µM (OVCAR-3): < 10%; inhibition of growth at 10 µM (NCI-H226): < 10%; inhibition of growth at 10 µM (NCI-H23): < 10%; inhibition of growth at 10 µM (MOLT-4): < 10%; inhibition of growth at 10 µM [4]: < 10%; zone of inhibition at 5000 µg/mL (Bacillus cereus): 5 mm; inhibition of growth at 10 µM (786-0): < 10%; inhibition of growth at 10 µM (SF-268): < 10%
